Common to all, as to format: cell-based
In one experiment the test system is A2780 (low αVβ3). As to the kind of experiment: MTT cytotoxicity, A2780. The following applies: 48 h; for Inhibitory % values, A2780: 100 µM. The protocol: (§1) In order to evaluate the cytotoxic activity of the synthesis compounds, five cell lines: A2780 (low αVβ3), OVCAR-3 (high αVβ3), SKOV-3 (low CD13), HT-1080 (high CD13) and MCF-7 and fibroblast cell were selected. A2780 and MCF-7 are both cancer cells, but A2780 is […] cell line. Three concentrations of products were prepared and were evaluated after 48 h by using MTT method. Therefore cells cultured in culture media (RPMI1640) at 37 °C under 5% CO2 supplemented with 10% fetal bovine serum (FBS), 100 U/mL penicillin and 100 μg/mL streptomycin. Nearly 10^4 cells were seeded into 96-well plates and were grown for 24 h in incubator. Compounds and doxorubicin added to wells, cells were incubated at 37 °C for 48 h. Cells without any adding of compound were used as negative control, Doxorubicin was used as positive control and DMSO as the solvent of the test compounds. After 48 h, 10 μL of MTT (5 mg/mL in PBS) was added at 37 °C for 4 h. The medium with MTT was removed and 100 μL DMSO was added to each well, cover the plate from light, shake it for 5 min, then optical densities were read at 570 nm with a reference wavelength of 630 nm as background using a spectrophotometer plate reader (Infinite® M200, TECAN).

The next experiment deals with SKOV-3 (low CD13). As to the kind of experiment: MTT cytotoxicity, SKOV-3. The following applies: 48 h; for Inhibitory % values, SKOV-3: 100 µM. As to the method: as §1
The test system of the next experiment is HT-1080 (high CD13). Nature of the experiment: MTT cytotoxicity, HT-1080. The following applies: 48 h; for Inhibitory % values, HT-1080: 100 µM. As to the method: as §1
Another experiment deals with MCF-7. Nature of the experiment: MTT cytotoxicity, MCF-7. As to conditions: 48 h; for Inhibitory % values, MCF-7: at 50 µM. The protocol: as §1
The test system of another experiment is Fibroblast. Nature of the experiment: MTT cytotoxicity, fibroblast. The following applies: 100 µM, 48 h. The protocol: as §1
For another experiment, the system named is OVCAR-3 (high αVβ3). As to the kind of experiment: MTT cytotoxicity, OVCAR-3. The following applies: 48 h; for Inhibitory % values, OVCAR3: 100 µM. The protocol:
as §1

The results in this text go back to article PMC6269559, “Design, Synthesis and Biological Evaluation of Ketoprofen Conjugated To RGD/NGR for Targeted Cancer Therapy” (Iranian Journal of Pharmaceutical Research : IJPR, 2018).

For the compound Arginine-Glycine-Aspartic acid [RGD], in the experiment with A2780 (low αVβ3), the “Inhibitory % values, A2780” value amounted to 10 ± 2.2%. The “Inhibitory % values, SKOV-3” value in the experiment with SKOV-3 (low CD13) came to 9.5 ± 0.5%. In addition, the “Inhibitory % values, HT-1080” value in the experiment on HT-1080 (high CD13) is given as “No inhibition”. For the same compound, the “Inhibitory % values, MCF-7” value with MCF-7 is recorded as “No inhibition”. In addition, the “Inhibitory % values, Fibroblast” value in the experiment with Fibroblast is “No inhibition”. In addition, in the experiment with OVCAR-3 (high αVβ3), the “Inhibitory % values, OVCAR3” value is given as “No inhibition”.

For the compound Asparagine-Glycine-Arginine [NGR], the “Inhibitory % values, A2780” value with A2780 (low αVβ3) worked out at 6 ± 1.5%. Moreover, the “Inhibitory % values, SKOV-3” value with SKOV-3 (low CD13) is listed as “No inhibition”. Moreover, in the experiment with HT-1080 (high CD13), the “Inhibitory % values, HT-1080” value was 6.5 ± 0.5%. Besides, the “Inhibitory % values, MCF-7” value in the experiment with MCF-7 is given as “No inhibition”. The “Inhibitory % values, Fibroblast” value in the experiment on Fibroblast is reported as “No inhibition”. Also, in the experiment with OVCAR-3 (high αVβ3), the “Inhibitory % values, OVCAR3” value is on record as “No inhibition”.

For the compound `CC(C(=O)O)c1cccc(C(=O)c2ccccc2)c1` (stereo not shown) [Ketoprofen], the “Inhibitory % values, A2780” value in the experiment with A2780 (low αVβ3) is given as “No inhibition”. For the same compound, the inhibition at 100 µM was determined as 14 ± 4.7% with SKOV-3 (low CD13) (Homo sapiens, SK-OV-3, 100 µM, read-out: Inhibitory % values, SKOV-3) and 9.25 ± 1.3% with HT-1080 (high CD13) (Homo sapiens, HT-1080, 100 µM, read-out: Inhibitory % values, HT-1080). For the same compound, the “Inhibitory % values, Fibroblast” value with Fibroblast is given as “No inhibition”. The “Inhibitory % values, OVCAR3” value with OVCAR-3 (high αVβ3) is “No inhibition”.

Regarding `COc1cccc2c1C(=O)c1c(O)c3c(c(O)c1C2=O)C[C@@](O)(C(=O)CO)C[C@@H]3O[C@H]1C[C@H](N)[C@H](O)[C@H](C)O1` [Doxorubicin, reference compound], the inhibition at 5 µM with A2780 (low αVβ3) (Homo sapiens, A2780, at 5 µM (positive control), read-out: Inhibitory % values, A2780) was 65 ± 1.2%; in the experiment on SKOV-3 (low CD13) (Homo sapiens, SK-OV-3, at 5 µM (positive control), read-out: Inhibitory % values, SKOV-3), 29.5 ± 2.5%; with HT-1080 (high CD13) (Homo sapiens, HT-1080, at 5 µM (positive control), read-out: Inhibitory % values, HT-1080), 26.7 ± 4.8%; in the experiment with MCF-7 (Homo sapiens, MCF7, at 5 µM (positive control), read-out: Inhibitory % values, MCF-7), 38 ± 0.53%; in the experiment with OVCAR-3 (high αVβ3) (Homo sapiens, OVCAR-3, at 5 µM (positive control), read-out: Inhibitory % values, OVCAR3), 45.2 ± 1.25%.
